Tests used:
Assay type in all cases: in vivo
Parameters in all cases: key: 5=total damage to plant; 0=no damage to plant
Lolium perenne (LOLPE) [1] = experiment: Pre-emergence herbicidal activity, glasshouse pot test; conditions: Rate 1000 g/ha; sprayed one day after sowing; evaluated after 13 days
Procedure, shortened: (§1)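 Pre-em spray, day 1 after sowing; vehicle acetone/water 50:50 + 0.5% Tween 20. Glasshouse 24/16 °C, 14 h light, 65% RH, watered 2×/day. Scored d13, 0 (no damage) to 5 (total).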

[2] = test system: Alopecurus myosuroides (ALOMY); experiment: as above; conditions: Rate 1000 g/ha; sprayed one day after sowing; evaluated after 13 days
Procedure, shortened: as §1

[3] = test system: Triticum aestivium (TRZAW); experiment: as above; conditions: Rate 1000 g/ha; sprayed one day after sowing; evaluated after 13 days
Procedure, shortened: as §1

[4] = test system: Echinochloa crus-galli (ECHCG); experiment: as above; conditions: Rate 1000 g/ha; sprayed one day after sowing; evaluated after 13 days
Procedure, shortened: as §1

Setaria faberi (SETFA) [5] = experiment: as above; conditions: Rate 1000 g/ha; sprayed one day after sowing; evaluated after 13 days
Procedure, shortened: as §1

Avena fatua (AVEFA) [6] = experiment: as above; conditions: Rate 1000 g/ha; sprayed one day after sowing; evaluated after 13 days
Procedure, shortened: as §1

Lolium perenne (LOLPE) [7] = experiment: Post-emergence herbicidal activity, glasshouse pot test; conditions: Rate 1000 g/ha; sprayed after 8 days cultivation; evaluated after 13 days
Procedure, shortened: (§2)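 Seedlings raised in standard soil under controlled glasshouse conditions received a foliar spray of the formulated compound after 8 days of cultivation. They were then kept at 24/16° C with 14 hours light and 65% humidity. Injury was assessed after 13 days, from 0 for no damage to 5 for total damage.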

[8] = test system: Alopecurus myosuroides (ALOMY); experiment: as above; conditions: Rate 1000 g/ha; sprayed after 8 days cultivation; evaluated after 13 days
Procedure, shortened: as §2

[9] = test system: Triticum aestivium (TRZAW); experiment: as above; conditions: Rate 1000 g/ha; sprayed after 8 days cultivation; evaluated after 13 days
Procedure, shortened: as §2

[10] = test system: Echinochloa crus-galli (ECHCG); experiment: as above; conditions: Rate 1000 g/ha; sprayed after 8 days cultivation; evaluated after 13 days
Procedure, shortened: as §2

Setaria faberi (SETFA) [11] = experiment: as above; conditions: Rate 1000 g/ha; sprayed after 8 days cultivation; evaluated after 13 days
Procedure, shortened: as §2

Avena fatua (AVEFA) [12] = experiment: as above; conditions: Rate 1000 g/ha; sprayed after 8 days cultivation; evaluated after 13 days
Procedure, shortened: as §2

Structure (SMILES)	Control of weed species after pre-emergence application, LOLPE (damage score 0-5) (Lolium perenne (LOLPE) [1])	Control of weed species after pre-emergence application, ALOMY (damage score 0-5) [2]	Control of weed species after pre-emergence application, TRAZW (damage score 0-5) [3]	Control of weed species after pre-emergence application, ECHCG (damage score 0-5) [4]	Control of weed species after pre-emergence application, SETFA (damage score 0-5) (Setaria faberi (SETFA) [5])	Control of weed species after pre-emergence application, AVEFA (damage score 0-5) (Avena fatua (AVEFA) [6])	Control of weed species after post-emergence application, LOLPE (damage score 0-5) (Lolium perenne (LOLPE) [7])	Control of weed species after post-emergence application, ALOMY (damage score 0-5) [8]	Control of weed species after post-emergence application, TRAZW (damage score 0-5) [9]	Control of weed species after post-emergence application, ECHCG (damage score 0-5) [10]	Control of weed species after post-emergence application, SETFA (damage score 0-5) (Setaria faberi (SETFA) [11])	Control of weed species after post-emergence application, AVEFA (damage score 0-5) (Avena fatua (AVEFA) [12])
COC(=O)c1nc(-c2cncc(F)c2)cnc1N(C(=O)OC(C)(C)C)C(=O)OC(C)(C)C [Compound H26]	0	0	0	0	5	0	0	0	1	3	5	1
CC(C)(C)OC(=O)Nc1ncc(-c2cncc(F)c2)nc1C(F)F [Compound H28]	0	3	0	2	4	2	3	0	0	5	5	4
C#Cc1nc(-c2cncc(F)c2)cnc1N(C(=O)OC(C)(C)C)C(=O)OC(C)(C)C [Compound H29]	0	0	0	0	0	0	1	0	1	1	1	0
CC(C)(C)OC(=O)Nc1ncc(-c2cncnc2)nc1C(F)F [Compound H30]	1	0	1	3	4	0	2	1	1	4	4	3
CC(C)(C)OC(=O)N(C(=O)OC(C)(C)C)c1ncc(-c2cncnc2)nc1C(F)F [Compound H31]	0	2	0	2	2	1	2	1	1	5	5	3

Source: patent publication US11434221B2, “Pyrazine-4-carbamate or -urea derivatives as herbicides” (Syngenta Participations AG, priority 2017, dated 2022)
